Experimental data from patent publication US10703733B2, “MCL-1 inhibitors” (Gilead Sciences, Inc., priority 2018, dated 2020).
Read-outs that look alike come from different tables or passages of the source.

Assays:
[1] = molecular target: MCL-1/Bim interaction (recombinant human MCL-1 protein, residues 171-327; biotinylated human Bim peptide, residues 51-76) (Homo sapiens (Human), UniProt Q07820); assay: MCL-1/Bim Binding AlphaLISA Assay; conditions: 0.0625 nM 6xHis-Mcl-1 (171-327), 0.0625 nM biotinylated-Bim peptide
Sequence of MCL-1/Bim interaction (recombinant human MCL-1 protein, residues 171-327; biotinylated human Bim peptide, residues 51-76) (Q07820 171-327): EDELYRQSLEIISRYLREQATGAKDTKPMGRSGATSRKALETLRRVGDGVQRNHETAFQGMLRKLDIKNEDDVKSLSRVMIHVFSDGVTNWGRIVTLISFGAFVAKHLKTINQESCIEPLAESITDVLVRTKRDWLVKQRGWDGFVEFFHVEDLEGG
Outline: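 AlphaLISA with 0.0625 nM His-tagged MCL-1 and 0.0625 nM biotin-Bim peptide in 20 mM Hepes pH 7.5, 150 mM NaCl, 0.002% Brij 35, 1 mM DTT, 0.01% BSA. Compound preincubated 1 h with MCL-1, Bim added for 2 h, then acceptor and donor beads 1 h each.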

SKBR3 cells = assay: SKBR3 Cell Viability Assay (CellTiter Glo); type: cell-based; conditions: CellTiter Glo luminescence, read-out: MCL-1 CV SKBR3 EC50
Outline: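 SKBR3 cells (6,000/well) in McCoy 5A + 10% FBS exposed to serially diluted compound for 72 h at 37° C., 5% CO2. Viability by CellTiter Glo luminescence; % inhibition normalized to DMSO (negative) and 10 μM puromycin (positive).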

SMILES	IC50 [1] [nM]	EC50 (SKBR3 cells; Homo sapiens, SK-BR-3, 72 h) [nM]	EC50 (SKBR3 cells; 72 hours) [nM]
CO[C@H]1/C=C/C[C@H](C)C[S@@](=O)(NC(=O)c2cc(C)co2)=NC(=O)c2ccc3c(c2)N(C[C@@H]2CC[C@H]21)C[C@@]1(CCCc2cc(Cl)ccc21)CO3 [Example 203]	0.073	76.1	–
CO[C@H]1/C=C/C[C@H](C)C[S@@](=O)(NC(=O)N[C@H]2C[C@@H]2C(F)F)=NC(=O)c2ccc3c(c2)N(C[C@@H]2CC[C@H]21)C[C@@]1(CCCc2cc(Cl)ccc21)CO3 [Example 311]	0.024	13.4	–
CO[C@H]1/C=C/C[C@H](C)C[S@@](=O)(NC(=O)N[C@@H]2C[C@H]2C(F)F)=NC(=O)c2ccc3c(c2)N(C[C@@H]2CC[C@H]21)C[C@@]1(CCCc2cc(Cl)ccc21)CO3 [Example 310]	0.074	230	–
CCn1ncc(C(=O)N[S@@]2(=O)=NC(=O)c3ccc4c(c3)N(C[C@@H]3CC[C@H]3[C@@H](OC)/C=C/C[C@H](C)C2)C[C@@]2(CCCc3cc(Cl)ccc32)CO4)n1 [Example 422]	0.035	187	–
COc1nc(N2CCOCC2)ncc1C(=O)N[S@@]1(=O)=NC(=O)c2ccc3c(c2)N(C[C@@H]2CC[C@H]2[C@@H](OC)/C=C/C[C@H](C)C1)C[C@@]1(CCCc2cc(Cl)ccc21)CO3 [Example 462]	0.251	345	–
COc1nn(C)cc1C(=O)N[S@@]1(=O)=NC(=O)c2ccc3c(c2)N(C[C@@H]2CC[C@H]2[C@@H](OC)/C=C/[C@H](OCC(=O)N(C)C)[C@H](C)C1)C[C@@]1(CCCc2cc(Cl)ccc21)CO3 [Example 401]	0.044	118	–
COc1nn(C)cc1C(=O)N[S@@]1(=O)=NC(=O)c2ccc3c(c2)N(C[C@@H]2CC[C@H]2[C@@H](OC(=O)CCN2CCOCC2)/C=C/C[C@H](C)C1)C[C@@]1(CCCc2cc(Cl)ccc21)CO3 [Example 300]	0.026	26.8	–
CO[C@H]1/C=C/C[C@H](C)C[S@@](=O)(NC(=O)N[C@H]2C[C@@](C)(CO)C2)=NC(=O)c2ccc3c(c2)N(C[C@@H]2CC[C@H]21)C[C@@]1(CCCc2cc(Cl)ccc21)CO3 [Example 314]	0.054	32.9	–
COCCOC1CN(C(=O)N[S@@]2(=O)=NC(=O)c3ccc4c(c3)N(C[C@@H]3CC[C@H]3[C@@H](OC)/C=C/C[C@H](C)C2)C[C@@]2(CCCc3cc(Cl)ccc32)CO4)C1 [Example 251]	0.037	39.6	–
CO[C@H]1/C=C/C[C@H](C)C[S@@](=O)(NC(=O)c2cc(C)n(C)c2)=NC(=O)c2ccc3c(c2)N(C[C@@H]2CC[C@H]21)C[C@@]1(CCCc2cc(Cl)ccc21)CO3 [Example 413]	0.478	130	–
CO[C@H]1/C=C/CCC[S@@](=O)(NC(=O)CCc2cnoc2)=NC(=O)c2ccc3c(c2)N(C[C@@H]2CC[C@H]21)C[C@@]1(CCCc2cc(Cl)ccc21)CO3 [Example 57]	0.2	596	–
CO[C@H]1/C=C/C[C@H](C)C[S@@](=O)(NC(=O)C2CC3(CCOC3)C2)=NC(=O)c2ccc3c(c2)N(C[C@@H]2CC[C@H]21)C[C@@]1(CCCc2cc(Cl)ccc21)CO3 (some centres unmarked) [Example 125]	0.074	88.7	–
COCC(=O)NS1(=O)=NC(=O)c2ccc3c(c2)N(C[C@@H]2CC[C@H]2[C@@H](OC)/C=C/CCC1)C[C@@]1(CCCc2cc(Cl)ccc21)CO3 (single isomer, unassigned) [Example 7]	1.2	–	4800
CO[C@H]1/C=C/C[C@H](C)C[S@@](=O)(NC(=O)C2CC2c2cnn(C)c2)=NC(=O)c2ccc3c(c2)N(C[C@@H]2CC[C@H]21)C[C@@]1(CCCc2cc(Cl)ccc21)CO3 (some centres unmarked) [Example 425]	0.078	171	–
CO[C@H]1/C=C/C[C@H](C)C[S@@](=O)(NC(=O)N2CC(C3COC3)C2)=NC(=O)c2ccc3c(c2)N(C[C@@H]2CC[C@H]21)C[C@@]1(CCCc2cc(Cl)ccc21)CO3 [Example 261]	0.053	72	–
CO[C@H]1/C=C/CCC[S@@](=O)(NC(=O)Cc2ccnn2C)=NC(=O)c2ccc3c(c2)N(C[C@@H]2CC[C@H]21)C[C@@]1(CCCc2cc(Cl)ccc21)CO3 [Example 29]	0.6	1840	–
CO[C@H]1/C=C/CCC[S@@](=O)(NC(=O)CCC2CCCC2)=NC(=O)c2ccc3c(c2)N(C[C@@H]2CC[C@H]21)C[C@@]1(CCCc2cc(Cl)ccc21)CO3 [Example 82]	1.1	2320	–
CO[C@H]1/C=C/CCC[S@@](=O)(NC(=O)CC(F)(F)F)=NC(=O)c2ccc3c(c2)N(C[C@@H]2CC[C@H]21)C[C@@]1(CCCc2cc(Cl)ccc21)CO3 [Example 23]	0.8	1450	–
CO[C@H]1/C=C/CCC[S@@](=O)(NC(C)=O)=NC(=O)c2ccc3c(c2)N(C[C@@H]2CC[C@H]21)C[C@@]1(CCCc2cc(Cl)ccc21)CO3 [Example 25]	0.6	2010	–
CO[C@H]1/C=C/CCC[S@@](=O)(NC(=O)CCc2nccs2)=NC(=O)c2ccc3c(c2)N(C[C@@H]2CC[C@H]21)C[C@@]1(CCCc2cc(Cl)ccc21)CO3 [Example 91]	0.1	616	–

Continued, values first:

IC50 [1] [nM]	EC50 (SKBR3 cells; Homo sapiens, SK-BR-3, 72 h) [nM]	EC50 (SKBR3 cells; 72 hours) [nM]	SMILES
0.2	3810	–	CO[C@H]1/C=C/CCCS(=O)(NC(=O)CCn2ccnn2)=NC(=O)c2ccc3c(c2)N(C[C@@H]2CC[C@H]21)C[C@@]1(CCCc2cc(Cl)ccc21)CO3 (single isomer, unassigned) [Example 54]
0.234	167	–	CO[C@H]1/C=C/C[C@H](C)C[S@@](=O)(NC(=O)c2cn(C)c3nccnc23)=NC(=O)c2ccc3c(c2)N(C[C@@H]2CC[C@H]21)C[C@@]1(CCCc2cc(Cl)ccc21)CO3 [Example 450]
0.057	64.4	–	CO[C@@H]1CC[C@@H](NC(=O)N[S@@]2(=O)=NC(=O)c3ccc4c(c3)N(C[C@@H]3CC[C@H]3[C@@H](OC)/C=C/C[C@H](C)C2)C[C@@]2(CCCc3cc(Cl)ccc32)CO4)C1 [Example 322]
5.3	6040	–	CCN(C)C(=O)N[S@@]1(=O)=NC(=O)c2ccc3c(c2)N(C[C@@H]2CC[C@H]2[C@@H](OC)/C=C/CCC1)C[C@@]1(CCCc2cc(Cl)ccc21)CO3 [Example 77]
4.54	3400	–	COC1CCN(c2nn(C)cc2C(=O)N[S@@]2(=O)=NC(=O)c3ccc4c(c3)N(C[C@@H]3CC[C@H]3[C@@H](OC)/C=C/C[C@H](C)C2)C[C@@]2(CCCc3cc(Cl)ccc32)CO4)CC1 [Example 380]
0.044	50	–	COc1nn(C)cc1C(=O)N[S@@]1(=O)=NC(=O)c2ccc3c(c2)N(C[C@@H]2CC[C@H]2[C@@H](O)CCC[C@H](C)C1)C[C@@]1(CCCc2cc(Cl)ccc21)CO3 [Example 280]
0.1	245	–	CO[C@H]1/C=C/CCC[S@@](=O)(NC(=O)CCc2ccnn2CC(F)(F)F)=NC(=O)c2ccc3c(c2)N(C[C@@H]2CC[C@H]21)C[C@@]1(CCCc2cc(Cl)ccc21)CO3 [Example 92]
0.033	64.3	–	CO[C@H]1/C=C/C[C@H](C)C[S@@](=O)(NC(=O)N[C@H]2C[C@H](CO)C2)=NC(=O)c2ccc3c(c2)N(C[C@@H]2CC[C@H]21)C[C@@]1(CCCc2cc(Cl)ccc21)CO3 [Example 189]
0.053	73.9	–	COCCOC1CCN(C(=O)N[S@@]2(=O)=NC(=O)c3ccc4c(c3)N(C[C@@H]3CC[C@H]3[C@@H](OC)/C=C/C[C@H](C)C2)C[C@@]2(CCCc3cc(Cl)ccc32)CO4)CC1 [Example 234]
0.659	1200	–	COC(=O)c1ccn2c1CN(C(=O)N[S@@]1(=O)=NC(=O)c3ccc4c(c3)N(C[C@@H]3CC[C@H]3[C@@H](OC)/C=C/C[C@H](C)C1)C[C@@]1(CCCc3cc(Cl)ccc31)CO4)CC2 [Example 383]
1.8	–	1970	CCC(=O)NS1(=O)=NC(=O)c2ccc3c(c2)N(C[C@@H]2CC[C@H]2[C@@H](OC)/C=C/CC[C@H]1CC)C[C@@]1(CCCc2cc(Cl)ccc21)CO3 (single isomer, unassigned) [Example 65]
0.046	54.4	–	CO[C@H]1/C=C/C[C@H](C)C[S@@](=O)(NC(=O)N2CC(Oc3cccnc3)C2)=NC(=O)c2ccc3c(c2)N(C[C@@H]2CC[C@H]21)C[C@@]1(CCCc2cc(Cl)ccc21)CO3 [Example 352]
0.446	403	–	CO[C@H]1/C=C/C[C@H](C)C[S@@](=O)(NC(=O)c2cc(C)cs2)=NC(=O)c2ccc3c(c2)N(C[C@@H]2CC[C@H]21)C[C@@]1(CCCc2cc(Cl)ccc21)CO3 [Example 434]
0.044	80.1	–	CO[C@H]1/C=C/C[C@H](C)C[S@@](=O)(NC(=O)N[C@@H]2CC[C@@H](O)C2)=NC(=O)c2ccc3c(c2)N(C[C@@H]2CC[C@H]21)C[C@@]1(CCCc2cc(Cl)ccc21)CO3 [Example 222]
0.051	40	–	CO[C@H]1/C=C/C[C@H](C)C[S@@](=O)(NC(=O)N2CC3(CCCO3)C2)=NC(=O)c2ccc3c(c2)N(C[C@@H]2CC[C@H]21)C[C@@]1(CCCc2cc(Cl)ccc21)CO3 [Example 231]
0.087	151	–	CO[C@H]1/C=C/C[C@H](C)C[S@@](=O)(NC(=O)c2cnc(C)nc2)=NC(=O)c2ccc3c(c2)N(C[C@@H]2CC[C@H]21)C[C@@]1(CCCc2cc(Cl)ccc21)CO3 [Example 461]
0.1	–	207	CO[C@H]1/C=C/C[C@H](C)[C@@H](C)[S@@](=O)(NC(=O)CCc2ccnn2C)=NC(=O)c2ccc3c(c2)N(C[C@@H]2CC[C@H]21)C[C@@]1(CCCc2cc(Cl)ccc21)CO3 [Example 49]
